{"source": "patent US7893088B2", "about": "“6-substituted isoquinoline derivatives” (N.V. Organon, priority 2006, dated 2011)", "molecular_target": "recombinant human ROCK-I (Homo sapiens, UniProt Q13464)", "sequence (Q13464 whole entry)": "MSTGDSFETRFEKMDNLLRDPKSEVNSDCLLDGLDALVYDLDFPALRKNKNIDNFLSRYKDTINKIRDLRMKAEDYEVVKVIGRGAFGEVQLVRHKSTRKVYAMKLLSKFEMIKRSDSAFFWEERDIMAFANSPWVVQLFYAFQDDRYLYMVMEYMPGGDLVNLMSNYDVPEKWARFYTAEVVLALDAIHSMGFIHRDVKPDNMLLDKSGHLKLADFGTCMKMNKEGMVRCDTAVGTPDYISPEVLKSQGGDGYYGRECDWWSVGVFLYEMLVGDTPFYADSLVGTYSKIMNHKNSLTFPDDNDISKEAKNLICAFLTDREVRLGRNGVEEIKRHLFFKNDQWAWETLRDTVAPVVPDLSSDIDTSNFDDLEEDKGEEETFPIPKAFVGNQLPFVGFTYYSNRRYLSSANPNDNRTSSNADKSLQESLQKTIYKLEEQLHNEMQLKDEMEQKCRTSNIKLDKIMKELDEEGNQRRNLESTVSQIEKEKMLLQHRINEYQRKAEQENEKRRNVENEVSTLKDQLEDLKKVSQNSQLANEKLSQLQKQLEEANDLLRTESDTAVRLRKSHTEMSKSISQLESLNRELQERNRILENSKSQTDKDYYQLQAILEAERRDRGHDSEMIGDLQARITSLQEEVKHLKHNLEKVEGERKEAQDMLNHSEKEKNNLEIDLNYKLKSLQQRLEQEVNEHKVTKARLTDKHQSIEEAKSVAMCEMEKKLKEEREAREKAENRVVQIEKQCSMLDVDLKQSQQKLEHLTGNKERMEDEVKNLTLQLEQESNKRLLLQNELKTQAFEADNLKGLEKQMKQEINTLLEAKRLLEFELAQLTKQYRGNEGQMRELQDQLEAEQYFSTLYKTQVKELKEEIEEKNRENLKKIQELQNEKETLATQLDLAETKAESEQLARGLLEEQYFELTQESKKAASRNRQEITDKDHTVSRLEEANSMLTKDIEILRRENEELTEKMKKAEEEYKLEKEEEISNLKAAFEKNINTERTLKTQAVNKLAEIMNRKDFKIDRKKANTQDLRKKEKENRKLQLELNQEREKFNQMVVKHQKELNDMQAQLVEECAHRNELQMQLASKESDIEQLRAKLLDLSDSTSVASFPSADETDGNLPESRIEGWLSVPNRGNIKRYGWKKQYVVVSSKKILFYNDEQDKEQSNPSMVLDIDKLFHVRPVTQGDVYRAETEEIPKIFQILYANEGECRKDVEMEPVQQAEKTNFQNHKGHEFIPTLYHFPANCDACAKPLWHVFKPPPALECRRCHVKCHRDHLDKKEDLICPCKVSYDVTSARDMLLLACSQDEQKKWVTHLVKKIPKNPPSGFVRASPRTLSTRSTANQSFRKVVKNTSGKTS", "assay": "biochemical", "details": "IMAP fluorescence polarisation, dose response curve, read-out: plC50 (the source's name)", "experimental": "Following a one hour incubation at room temperature in the dark, enzyme activity is detected by adding 60 μl of IMAP binding reagent (Molecular Devices) to each well.", "data": [{"smiles": "Nc1nccc2cc(S[C@H]3CC[C@@H](N)CC3)ccc12", "note": "[Example 4, Cis-6-(4-aminocyclohexylsulfanyl)isoquinolin-1-ylamine]", "values": [{"measurement": "IC50", "value": "< 316", "unit": "nM"}]}]}
